Assay results as given in ChEMBL document CHEMBL4616702 (ACS Med Chem Lett, 2020).

How the values were obtained:
[1] = Half life in human liver microsomes in presence of NADPH by LC/MS/MS method; type: ADME, Microsome
[2] = Half life in rat liver microsomes in presence of NADPH by LC/MS/MS metho; type: ADME, Microsome; details: for half-life: liver microsomes; for t1/2: microsomes
[3] = Half life in mouse liver microsomes in presence of NADPH by LC/MS/MS method; type: ADME, Microsome; details: for half-life: liver microsomes
[4] = Drug concentration in Balb/c mouse at 10 mg/kg, po measured upto 24 hrs; type: ADME, organism-based; details: in vivo, read-out: Drug uptake
[5] = AUC (0 to 24 hrs) in Balb/c mouse at 10 mg/kg, po; type: ADME, organism-based; parameters: dose 10 mg/kg, time < 24 hr, route oral; details: in vivo
[6] = Cmax in Balb/c mouse at 10 mg/kg, po; type: ADME, organism-based; parameters: dose 10 mg/kg, route oral; details: in vivo

half-life [1]	half-life [2]	half-life [3]	concentration at 24 h [4]	AUC(0-t) at 24 h [5]	Cmax [6]	t1/2 [2]	t1/2 ([3]; microsomes)	Compound
> 120 min	> 120 min	> 120 min	–	–	–	–	–	O=C(N1CC[C@@]2(S(=O)(=O)c3ccc(F)cc3)c3ccc(C(F)(C(F)(F)F)C(F)(F)F)cc3CC[C@@H]12)C1(O)CCS(=O)(=O)CC1
> 120 min	73 min	> 120 min	2200 nM	134 µM·h	9 µM	–	–	C[C@@H]1C[C@H](C(=O)N2CC[C@@]3(S(=O)(=O)c4ccc(F)cc4)c4ccc(C(F)(C(F)(F)F)C(F)(F)F)cc4CC[C@@H]23)CC[C@H]1C(=O)O
> 120 min	> 120 min	> 120 min	780 nM	72 µM·h	12 µM	–	–	C[C@H]1C[C@H](C(=O)N2CC[C@@]3(S(=O)(=O)c4cccc(F)c4)c4ccc(C(F)(C(F)(F)F)C(F)(F)F)cc4CC[C@@H]23)CC[C@H]1C(=O)O
> 120 min	107 min	> 120 min	–	–	–	–	–	C[C@H]1C[C@H](C(=O)O)CC[C@H]1C(=O)N1CC[C@@]2(S(=O)(=O)c3cccc(F)c3)c3ccc(C(F)(C(F)(F)F)C(F)(F)F)cc3CC[C@@H]12
> 120 min	> 120 min	> 120 min	–	–	–	–	–	O=C(O)[C@H]1CC[C@H](C(=O)N2CC[C@@]3(S(=O)(=O)c4ccc(F)cc4)c4ccc(C(F)(C(F)(F)F)C(F)(F)F)cc4CC[C@@H]23)CC1
> 120 min	–	> 120 min	–	–	–	> 120 min	–	C[C@H]1C[C@@H](C(=O)N2CC[C@@]3(S(=O)(=O)c4ccc(F)cc4)c4ccc(C(F)(C(F)(F)F)C(F)(F)F)cc4CC[C@@H]23)CCS1(=O)=O (stereo in doubt; 3)
–	–	–	–	–	–	33 min	98 min	C[C@H]1C[C@@H](C(=O)N2CC[C@@]3(S(=O)(=O)c4ccc(F)cc4)c4ccc(C(F)(C(F)(F)F)C(F)(F)F)cc4CC[C@@H]23)CCS1(=O)=O (stereo in doubt; 4)
> 120 min	> 120 min	> 120 min	–	–	–	–	–	C[C@@H]1C[C@H](C(=O)O)CC[C@H]1C(=O)N1CC[C@@]2(S(=O)(=O)c3ccc(F)cc3)c3ccc(C(F)(C(F)(F)F)C(F)(F)F)cc3CC[C@@H]12
